# Results taken from PubChem BioAssay (NCI).
#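 How tested: cells in 96-well plates exposed to compound for 48 hours at five concentrations. GI50: concentration for 50% inhibition of growth. At the TGI there is no net growth.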
# Experiments:
# Assay in all cases: DTP human tumour cell line panel, 48 h
# LXFL 529 NSCLC = system: LXFL 529 NSCLC
# NCI-H23 lung = system: NCI-H23 lung
# HOP-92 NSCLC = system: HOP-92 NSCLC
# UO-31 renal = system: UO-31 renal
# OVCAR-3 ovarian = system: OVCAR-3 ovarian
# KM20L2 colon = system: KM20L2 colon
# SNB-78 CNS = system: SNB-78 CNS
# OVCAR-8 ovarian = system: OVCAR-8 ovarian
# SF-295 CNS = system: SF-295 CNS
# HS 578T breast = system: HS 578T breast
Compound,TGI (LXFL 529 NSCLC) [µM],TGI (NCI-H23 lung) [µM],TGI (HOP-92 NSCLC) [µM],TGI (UO-31 renal) [µM],TGI (OVCAR-3 ovarian) [µM],TGI (KM20L2 colon) [µM],TGI (SNB-78 CNS) [µM],TGI (OVCAR-8 ovarian) [µM],TGI (SF-295 CNS) [µM],GI50 (LXFL 529 NSCLC) [µM],GI50 (NCI-H23 lung) [µM],GI50 (SF-295 CNS) [µM],GI50 (OVCAR-3 ovarian) [µM],GI50 (KM20L2 colon) [µM],GI50 (SNB-78 CNS) [µM],GI50 (OVCAR-8 ovarian) [µM],GI50 (HOP-92 NSCLC) [µM],GI50 (UO-31 renal) [µM],TGI (HS 578T breast) [µM],GI50 (HS 578T breast) [µM]
CCOC(=O)C(=O)CC1=Nc2ccccc2SC(c2cccc(C)c2)C1 (stereo unspecified),31.9,32,32,28.7,34,32.2,32.4,25.1,–,–,–,–,–,–,–,–,–,–,–,–
CC1=C(/C=C/C(C)=C/C2CC(N(C)C)=CC(=O)O2)C(C)(C)CCC1 (stereo unspecified),24,27.8,31.1,22.7,23.7,–,41.9,32.3,26.1,–,–,–,–,–,–,–,–,–,–,–
CC(=O)[O-].Cn1ccnc1CNCc1nccn1C.[Cu+2].[O-][Cl+3]([O-])([O-])[O-],> 100,> 100,–,–,> 100,> 100,> 100,> 100,> 100,> 100,> 100,96.9,> 100,> 100,> 100,> 100,–,–,–,–
c1ccc(C2OC3(CCC[C@H]4C[C@H]43)O[C@H]2c2ccccc2)cc1 (stereo partly specified),–,> 100,66.2,> 100,> 100,> 100,> 100,> 100,> 100,–,–,–,–,–,–,–,–,–,–,–
C[CH2][Ge]([CH2]C)([CH2]C)[O]C(=O)C(OC(C)=O)c1ccccc1 (stereo unspecified),> 100,> 100,> 100,> 100,> 100,> 100,> 100,> 100,> 100,> 100,> 100,> 100,> 100,> 100,> 100,> 100,57.9,> 100,–,–
CN(C)CCNC(=O)c1cccc2cc3c(Cl)cccc3nc12,–,3.23,4.28,> 28.7,4.9,4.75,8.26,> 20.3,–,–,–,–,–,–,–,–,–,–,–,–
CC(=O)Nc1c(Nc2ccccc2)[nH]c(C)nc1=S,> 100,> 100,> 100,> 100,> 100,> 100,> 100,> 100,> 100,–,–,–,–,–,–,–,–,–,–,–
O=C(O)[C@H](NS(=O)(=O)c1ccc(F)cc1)c1ccccc1,> 100,> 100,–,> 100,> 100,> 100,> 100,> 100,> 100,–,–,–,–,–,–,–,–,–,–,–
Cc1ccc(S(=O)(=O)SC(C)(C)C)cc1,> 100,19.5,> 100,> 100,39.3,–,> 100,48.3,> 100,–,–,–,–,–,–,–,–,–,> 100,–
COc1ccc2c3c([nH]c2c1[N+](=O)[O-])C(C)N(Cc1ccccc1)CC3 (stereo unspecified),> 100,> 100,–,> 100,49,> 100,> 100,> 100,–,–,–,–,–,–,–,–,–,–,–,–
N#C/C(=C/c1ccc2c(c1)OCO2)C(=O)c1ccccc1,> 100,> 100,–,> 100,> 100,> 100,> 100,> 100,> 100,–,–,–,–,–,–,–,–,–,–,–
N/C(=N\N=C\c1ccc(C(F)(F)F)cc1)NO,> 100,52.9,58.8,–,62.9,–,> 100,41.2,> 100,–,–,–,–,–,–,–,–,–,–,–
Cc1cccc(C)c1NC(=O)C1=NC(=S)NC(c2ccccc2)C1c1nc2ccccc2s1 (stereo unspecified),> 100,> 100,> 100,> 100,> 100,> 100,> 100,> 100,> 100,–,–,–,–,–,–,–,–,–,–,–
COCN1COCN=C1NC#N,> 100,> 100,> 100,> 100,> 100,> 100,> 100,> 100,> 100,–,–,–,–,–,–,–,–,–,–,–
O=C1N2Cc3c4ccc5c3CN3C(=O)N6Cc7c(ccc(c7CN1C6(c1ccccc1)C23c1ccccc1)OCCOCCNCCOCCO4)OCCOCCNCCOCCO5 (stereo unspecified),53.7,> 100,57.4,> 100,> 100,> 100,> 100,> 100,> 100,–,–,–,–,–,–,–,–,–,–,–
COC(=O)C1Cc2c(n(C)c3ccccc23)C(CCC(=O)O)N1Cc1ccccc1 (stereo unspecified),> 100,80.7,60.2,51.4,53.4,> 100,> 100,> 100,93.9,–,–,–,–,–,–,–,–,–,–,–
O=C(CCCN1CCC(O)(c2ccc(Cl)cc2)CC1)c1ccc(F)cc1,–,84.1,> 100,45.8,45.2,–,–,> 100,31.5,–,–,–,–,–,–,–,–,–,65.9,–
O=[N+]([O-])C=C(c1ccc(Cl)cc1)c1ccc(Cl)cc1,28.5,25.6,–,27.2,–,38.9,44,36.3,32.8,–,–,–,–,–,–,–,–,–,–,–
COc1cccc(CC(C)=C(c2ccc(OCCN3CCCCC3)cc2)c2ccc(OCCN3CCCCC3)cc2)c1,–,4.47,2.59,3.66,4.04,–,–,4.81,4.82,–,2.13,2.42,1.95,–,–,2.3,0.612,1.84,4.02,1.52
Cc1cc2c(cc1Cl)S/C(=C/C(=O)O)C(Nc1ccc3ncsc3c1)=NS2(=O)=O,–,> 22.5,21.5,> 50.7,41.2,–,–,> 100,> 48.1,–,> 14.3,> 31.6,14,–,–,32.7,7.76,14.8,> 40.9,9.81
CC(N)(Cc1c[nH]c2cccc(F)c12)C(=O)O (stereo unspecified),–,> 1000,> 1000,> 1000,> 1000,–,–,> 1000,> 1000,–,> 1000,> 1000,> 1000,–,–,> 1000,–,138,> 1000,786
O=C(Nc1cccc(O)c1)c1ccc(NC2=C(Cl)C(=O)N(Cc3ccc(Cl)cc3Cl)C2=O)cc1,–,36.1,4.16,3.75,3.45,–,–,4.12,4.07,–,19.6,1.95,1.66,–,–,1.95,1.86,1.91,11.9,3.24
